# Assay results reported in US20250161245A1, “A MIXTURE OF UREA, BIURET AND N-CONTAINING BY-PRODUCTS CREATED DURING BIURET PRODUCTION AS A DIETARY NON-PROTEIN NITROGEN-SOURCE FOR RUMINANTS AND USES THEREOF” (Yara International ASA, priority 2022, published 2025).
# Tests used:
# rumen microbiota = experiment: Gas Production Test, in vitro rumen fermentation model (Example 1); type: cell-based; conditions: 15 mg N per flask, 72 hours incubation
# Protocol: The in vitro model used to simulate rumen digestion and utilization of the products is the Gas Production Test protocol, adapted for protein digestibility, as described in more detail in the following paragraph.
# Approximately 1 liter of rumen fluid was collected from two different rumen-fistulated animals in the morning. Rumen fluid was strained through a cheesecloth, kept at 39° C. under CO2 and then diluted 1:19 with a nitrogen-free buffer and mineral solution containing 10.03 g NaHCO3, 1.43 g Na2HPO4, 1.55 g KH2PO4, 0.15 g MgSO4·7H2O, 0.52 g Na2S, 0.017 g CaCl2·2H2O, 0.015 g MnCl2·4H2O, 0.002 g […], 0.012 g FeCl3·6H2O and 0.125 mg resazurin per liter.
# To ensure the rumen fluid was depleted of free nitrogen and to ensure nitrogen would be the limiting factor for the microbial growth at the start of the experiment, the buffered rumen fluid was pre-incubated for 4 hours at 39° C. with a carbohydrate overload of glucose, xylose and soluble starch, each at 3.33 g/l. During this pre-incubation, all nitrogen available in the rumen fluid would be incorporated into bacterial protein and other bacterial nitrogen-containing components.
# Each product was weighed into different glass bottles on an isonitrogenous base, providing 15 mg N per flask. Then, 60 ml of the pre-incubated buffered rumen fluid was added, under continuous flushing with CO2. Flasks were closed with rubber stoppers and placed in a shaking water bath with 50 movements per minute at 39° C. to start the incubation period. The gas production of each flask was recorded continuously for 72 hours using a fully automated system. All test products including a blank (i.e. no product added to the flask of rumen fluid) were tested in one run in triplicate.
# The cumulative gas production was measured continuously for 72 hours.
# rumen microbes = experiment: microbial protein synthesis, 15N batch culture (Example 4); type: cell-based, Angus crossbred steers; conditions: 24 hours of incubation
# Protocol: The in vitro incubations were conducted on three separate days (replicates). A representative sample of digesta was collected from different places in the rumen of ruminally cannulated steers and strained through 4 layers of cheesecloth, placed in pre-warmed thermos containers, and transported to the laboratory within 30 minutes after the collection. In the laboratory, the ruminal fluid from the two steers was maintained under constant CO2-flux and was combined in equal proportions. This combined ruminal fluid was mixed with McDougall's buffer (McDougall, 1948) with and without 0.077 g/liter of 10 wt. % ammonium sulfate enriched with ^15N in relation 1:4, and it was used as an inoculum. Two bottles of 500 ml fitted with a side arm and a rubber septum were incubated per treatment. […] At the end of the 24 hours incubation, the final pH was recorded, the bottles were placed on ice to prevent further microbial fermentation and two 10-ml samples were collected and acidified by adding 20 μl of a 20 vol/vol % of H2SO4-solution and were frozen at minus 20° C. until further analysis. […]
# The total nitrogen (N) and the isotopic supplement were measured in the whole content and the bacterial pellet by an isotopic ratio mass spectrometry using a Vario Micro cube from Elementar Analyzer System GmbH. […]
smiles,measurement,setting,value
"NC(N)=O [Urea, urea]",maximum gas production rate,rumen microbiota,17 mL/h
same,time after which gas production stopped / maximum cumulative gas production (end level) was reached,rumen microbiota,30 h
same,lag period of cumulative gas production,"rumen microbiota; buffered rumen fluid, 39° C.",approximately 5 hours
same,Bacteria N,rumen microbes,67.34 mg
same,EMPS,rumen microbes,34.46 g of bacteria N/kg of OM truly digested
